{"source": "paper PMC3693846", "about": "(Cellular and molecular neurobiology, 2013)", "system": "L-type voltage-gated calcium channel (subtype not resolved)", "assay_type": "cell-based"}
{"smiles": "CC(C)n1cnc2c(NCCCCCCNC(=O)OC(C)(C)C)nc(NCCO)nc21", "note": "[CK59, 2-(2-Hydroxyethylamino)-6-aminohexylcarbamic acid tert-butyl ester-9-isopropylpurine]", "values": [{"measurement": "% decrease of current at 50 μM", "value": "67.47 % decrease of current at 50 μM"}]}
